Results as given in US7230085B2, “Anti-DOTA antibody” (Immunomedics, Inc., priority 2001, dated 2007).
Where a SMILES comes first, the peptide text is derived from it. The star is where a group is joined. DOTA = O=C(O)CN1CCN(CC(=O)O)CCN(CC(=O)*)CCN(CC(=O)O)CC1

Experiments:
[1] = test system: human colonic tumor cell line, termed GW-39; assay: Biodistribution in nude mice bearing GW-39 tumors; design: species or system NcR athymic nude mice; settings: mouse, in vivo
Method: NcR athymic nude mice are implanted with cells of the human colonic tumor cell line, termed GW-39. When tumors have reached an appropriate size (>100 mm^3) agents are injected. The I-125-radioiodinated msAb is given first, and at different later times the In-111-IMP-236 is administered. The latter radiolabeled peptide is also given alone to a control group of animals. Doses given to each animal are 1.5×10^−10 moles of I-125-hMN-14×mLG1 (8 uCi of I-125 per animal), and 1.5×10^−11 moles of In-111-IMP-236. At specified times post-injection of the labeled IMP-236 animals are sacrificed and major internal tissues are collected and quantified for both I-125 and In-111 radioactivity.

LG1 IgG antibody = assay: Binding of radiolabeled IMP 236 by LG1 on size-exclusion HPLC; design: species or system mouse; settings: mixed with excess LG1; SE-HPLC shift
Method: Typical procedures for the production of radiolabeled DOTA-peptides incorporating, for example, Y-90 and Lu-177 are as follows. Of particular importance is the maximum specific activity achievable, which depends on the quality of the isotope. The radionuclide, obtained in an acidic solution, is treated with an excess of an acetate buffer, to a final pH of 4-6, and added to the DOTA-peptide conjugate, also in acetate buffer. All manipulations are carried out using acid-washed and metal-free components. The labeling mixture is heated at 45° C. for one hour and then allowed to cool to room temperature. Radiolabeled peptides are analyzed by RP-HPLC to determine incorporation, and are tested for binding to LG1, by mixing with a small excess of the LG1 mAb, and testing by analytical size-exclusion HPLC.
Yttrium-90 (^˜400 uCi per kit) is diluted to 1 mL in deionized water and added in one portion to the lyophilized IMP 236 kits of example 12. The kits are heated in a boiling water-bath for 15 min, and the vials then cooled to room temperature. The Y-90 radiolabeled peptides are analyzed by reverse-phase HPLC. […]
Indium-111 [In-111] radionuclide (^˜300 uCi added per kit) is diluted to 0.5 mL in deionized water and added to the lyophilized kits. […] The labeled peptide vials are cooled to room temperature and evaluated by reverse-phase HPLC. […]

hMN-14-DOTA-yttrium-90 = assay: Qualitative binding on size-exclusion HPLC; settings: SE-HPLC
hLL2-DOTA-yttrium = assay: Qualitative binding on size-exclusion HPLC; settings: SE-HPLC
Description: (§1) The msAb, LG1×hMN-14 (Fab′×Fab) is shown by the same analysis to bind to hLL2-DOTA-yttrium.

hLL2-DOTA = assay: Qualitative binding on size-exclusion HPLC; settings: SE-HPLC
Description: as §1

Molecule: CC(=O)N[C@@H](Cc1ccccc1)C(=O)N[C@@H](CCCCNC(=O)CN1CCN(CC(=O)O)CCN(CC(=O)O)CCN(CC(=O)O)CC1)C(=O)N[C@@H](Cc1ccc(O)cc1)C(=O)N[C@@H](CCCCNC(=O)CN1CCN(CC(=O)O)CCN(CC(=O)O)CCN(CC(=O)O)CC1)C(N)=O [In-111-IMP-236, metal not drawn] (Ac-FK(DOTA)YK(DOTA)-NH2)
- Blood, 30 minutes [1]: 1.0 ± 0.3 percent injected dose per gram of tissue
- Blood, 3 h [1]: 0.0 ± 0.0 percent injected dose per gram of tissue
- Blood, 24 h [1]: 0.0 ± 0.0 percent injected dose per gram of tissue
- Blood, In-111, 3 h [1]: 0.4 ± 0.0 percent injected dose per gram of tissue
- Blood, In-111, 24 h [1]: 0.0 ± 0.0 percent injected dose per gram of tissue
- Kidney, 30 minutes [1]: 4.2 ± 0.7 percent injected dose per gram of tissue
- Kidney, 3 h [1]: 2.2 ± 0.2 percent injected dose per gram of tissue
- Kidney, 24 h [1]: 0.0 ± 0.0 percent injected dose per gram of tissue
- Kidney, In-111, 3 h [1]: 2.5 ± 0.6 percent injected dose per gram of tissue
- Kidney, In-111, 24 h [1]: 1.0 ± 0.2 percent injected dose per gram of tissue
- Liver, 30 minutes [1]: 0.3 ± 0.1 percent injected dose per gram of tissue
- Liver, 3 h [1]: 0.2 ± 0.1 percent injected dose per gram of tissue
- Liver, 24 h [1]: 0.0 ± 0.0 percent injected dose per gram of tissue
- Liver, In-111, 3 h [1]: 0.2 ± 0.0 percent injected dose per gram of tissue
- Liver, In-111, 24 h [1]: 0.1 ± 0.0 percent injected dose per gram of tissue
- Lungs, 30 minutes [1]: 0.7 ± 0.2 percent injected dose per gram of tissue
- Lungs, 3 h [1]: 0.1 ± 0.0 percent injected dose per gram of tissue
- Lungs, 24 h [1]: 0.0 ± 0.0 percent injected dose per gram of tissue
- Lungs, In-111, 3 h [1]: 0.2 ± 0.0 percent injected dose per gram of tissue
- Lungs, In-111, 24 h [1]: 0.0 ± 0.0 percent injected dose per gram of tissue
- Spleen, 30 minutes [1]: 0.3 ± 0.1 percent injected dose per gram of tissue
- Spleen, 3 h [1]: 0.1 ± 0.0 percent injected dose per gram of tissue
- Spleen, 24 h [1]: 0.0 ± 0.0 percent injected dose per gram of tissue
- Spleen, In-111, 3 h [1]: 0.2 ± 0.0 percent injected dose per gram of tissue
- Spleen, In-111, 24 h [1]: 0.1 ± 0.0 percent injected dose per gram of tissue
- Stomach, 30 minutes [1]: 0.2 ± 0.1 percent injected dose per gram of tissue
- Stomach, 3 h [1]: 0.0 ± 0.0 percent injected dose per gram of tissue
- Stomach, 24 h [1]: 0.0 ± 0.0 percent injected dose per gram of tissue
- Stomach, In-111, 3 h [1]: 0.1 ± 0.2 percent injected dose per gram of tissue
- Stomach, In-111, 24 h [1]: 0.0 ± 0.0 percent injected dose per gram of tissue
- Tumor, 30 minutes [1]: 1.6 ± 0.3 percent injected dose per gram of tissue
- Tumor, 3 h [1]: 0.1 ± 0.0 percent injected dose per gram of tissue
- Tumor, 24 h [1]: 0.0 ± 0.0 percent injected dose per gram of tissue
- Tumor, In-111, 3 h [1]: 6.4 ± 1.1 percent injected dose per gram of tissue
- Tumor, In-111, 24 h [1]: 1.3 ± 0.3 percent injected dose per gram of tissue
- elimination [1]: quickly eliminated via the renal system

Molecule: Ac-Phe-Lys(DOTA)-Tyr-Lys(DOTA)-NH2 (Ac-FK(DOTA)YK(DOTA)-NH2; SMILES CC(=O)N[C@@H](Cc1ccccc1)C(=O)N[C@@H](CCCCNC(=O)CN1CCN(CC(=O)O)CCN(CC(=O)O)CCN(CC(=O)O)CC1)C(=O)N[C@@H](Cc1ccc(O)cc1)C(=O)N[C@@H](CCCCNC(=O)CN1CCN(CC(=O)O)CCN(CC(=O)O)CCN(CC(=O)O)CC1)C(N)=O) [IMP 236]
- binding of radiolabeled peptide by LG1 (LG1 IgG antibody): bind strongly

B1: Fab fragment of LG1: Fab fragment from ficin digestion of LG1 IgG (antibody, V domains shown)
VH: EVMLVESGGGLVKPGGSLTLSCAASGFTFTAHAMSWVRQTPEKRLEWVATISGGGTYTYFPDSFQGRFTISSDNAKNTLYLQMSSLRSEDTSMYFCTRHGDYRYAFGYWGQGTLVTVSA
VL: VVTQESALTTSPGETVTLTCRSSSGAVTTNNYANWVQEKPDHLFTGLIGGTNNRAPGVPARFSGSLIGDKAALTITGAQTEDEAIYFCALWFSDHWVFGGGTELTVLG
- binding to hMN-14-DOTA-yttrium-90 (hMN-14-DOTA-yttrium-90): positive binding
- binding to hLL2-DOTA-yttrium (hLL2-DOTA-yttrium): positive binding
- binding to hLL2-DOTA (hLL2-DOTA): positive binding
